Measured values from ChEMBL document CHEMBL5058564, “EUbOPEN Chemogenomics Library 2 (Incucyte)” (2022).
*1 amine or outer side, *2 acyl side, *3 side chain or, on linkers, in order; H or OH if unused. Where a SMILES comes first, the peptide text is derived from it. Bridges are numbered along the chain shown (N, C = ends). X1 = O=C(CCC[*:2])[*:1]

How the values were obtained:
Format in all cases: toxicity, cell-based
[1] = tested on: U2OS; experiment: Incucyte cell viability with U2OS; settings: human, 10 µM, compound concentration 10 uM
[2] = tested on: HEK-293T; experiment: Incucyte cell viability with HEK293T; settings: human, 10 µM, compound concentration 10 uM
[3] = tested on: Fibroblast; experiment: Incucyte cell viability with human fibroblast; settings: 10 µM, compound concentration 10 uM
[4] = 0 h, replicate number 1, timepoint 0 hours
[5] = 0 h, replicate number 2, timepoint 0 hours
[6] = 6 h, replicate number 1, timepoint 6 hours
[7] = 6 h, replicate number 2, timepoint 6 hours
[8] = 12 h, replicate number 1, timepoint 12 hours
[9] = 12 h, replicate number 2, timepoint 12 hours
[10] = 18 h, replicate number 1, timepoint 18 hours
[11] = 18 h, replicate number 2, timepoint 18 hours
[12] = 24 h, replicate number 1, timepoint 24 hours
[13] = 24 h, replicate number 2, timepoint 24 hours
Also: unitless GR value; below 1 slowed growth and below 0 cell loss.

Compound: Cc1cc(O)c(-c2ccc([C@@H](C)CN(C)C)cc2)c2c1[nH]c(=O)c1sccc12
- Growth Rate [1, 4]: -0.17
- Growth Rate [1, 5]: 1
- Growth Rate [1, 6]: 0.74
- Growth Rate [1, 7]: 0.66
- Growth Rate [1, 8]: 0.65
- Growth Rate [1, 9]: 0.31
- Growth Rate [1, 10]: 0.13
- Growth Rate [1, 11]: 0.18
- Growth Rate [1, 12]: 0.16
- Growth Rate [1, 13]: 0.09
- Growth Rate [2, 6]: -0.8
- Growth Rate [2, 7]: -0.77
- Growth Rate [2, 8]: -0.64
- Growth Rate [2, 9]: -0.63
- Growth Rate [2, 10]: -0.48
- Growth Rate [2, 11]: -0.52
- Growth Rate [2, 12]: -0.37
- Growth Rate [2, 13]: -0.4
- Growth Rate [3, 6]: -0.87
- Growth Rate [3, 7]: -0.66
- Growth Rate [3, 8]: -0.63
- Growth Rate [3, 9]: -0.4
- Growth Rate [3, 10]: -0.6
- Growth Rate [3, 11]: -0.3
- Growth Rate [3, 12]: -0.36
- Growth Rate [3, 13]: -0.25

Compound: O=C(NCC(=O)N1CC[C@H](N[C@H]2CC[C@@](O)(c3ccc(-c4ncccn4)cn3)CC2)C1)c1cccc(C(F)(F)F)c1 [PF-4136309]
- Growth Rate [1, 4]: 0.62
- Growth Rate [1, 7]: 0.3
- Growth Rate [1, 9]: 0.53
- Growth Rate [1, 10]: 1
- Growth Rate [1, 11]: 0.8
- Growth Rate [1, 12]: 0.7
- Growth Rate [1, 13]: 0.9
- Growth Rate [2, 5]: 0.66
- Growth Rate [2, 6]: 1
- Growth Rate [2, 7]: 0.86
- Growth Rate [2, 8]: 0.73
- Growth Rate [2, 12]: 0.99
- Growth Rate [3, 5]: 0.71
- Growth Rate [3, 6]: 0.01
- Growth Rate [3, 8]: 0.15
- Growth Rate [3, 10]: 0.3
- Growth Rate [3, 12]: 0.41

Compound: CSCC[C@H](NC(=O)[C@H](CC(C)C)NC(=O)CNC(=O)[C@H](Cc1ccccc1)N(C)C(=O)[C@H](Cc1ccccc1)NC(=O)[C@H](CC(=O)O)NC(=O)CCC(=O)O)C(N)=O [SENKTIDE]
- Growth Rate [1, 8]: 0.94
- Growth Rate [1, 9]: 0.98
- Growth Rate [1, 11]: 0.91
- Growth Rate [2, 4]: 0.75
- Growth Rate [2, 5]: -0.03
- Growth Rate [2, 6]: 0.83
- Growth Rate [2, 9]: 0.93
- Growth Rate [2, 10]: 0.92
- Growth Rate [2, 12]: 0.84
- Growth Rate [2, 13]: 0.88
- Growth Rate [3, 4]: 0.34
- Growth Rate [3, 5]: 0.41
- Growth Rate [3, 7]: 0.25
- Growth Rate [3, 8]: 0.98
- Growth Rate [3, 9]: 0.87
- Growth Rate [3, 12]: 0.9

Compound: COc1c(Nc2ccc(S(C)(=O)=O)nc2C)ncnc1OC1CCN(C(=O)OC(C)C)CC1 [ADP-597]
- Growth Rate [1, 10]: 0.98
- Growth Rate [1, 12]: 1
- Growth Rate [2, 6]: 0.29
- Growth Rate [2, 8]: 0.45
- Growth Rate [2, 10]: 0.51
- Growth Rate [2, 12]: 0.74
- Growth Rate [3, 5]: 0.94
- Growth Rate [3, 6]: 0.72
- Growth Rate [3, 8]: 0.53
- Growth Rate [3, 9]: 0.7
- Growth Rate [3, 10]: 0.34
- Growth Rate [3, 12]: 0.88

Compound: O=C(Nc1cc(-c2ccccc2)nn1-c1ccccc1F)c1ccc([N+](=O)[O-])cc1
- Growth Rate [1, 7]: 0.54
- Growth Rate [1, 9]: 0.84
- Growth Rate [1, 11]: 0.9
- Growth Rate [1, 13]: 0.95
- Growth Rate [2, 4]: 0.97
- Growth Rate [2, 5]: 0.17
- Growth Rate [3, 6]: -0.14
- Growth Rate [3, 7]: 0.55
- Growth Rate [3, 8]: 0.25
- Growth Rate [3, 10]: 0.09
- Growth Rate [3, 11]: 0.95
- Growth Rate [3, 12]: -0.11

Compound: COc1cc(Br)c(S(=O)(=O)Nc2ccc(C(F)(F)F)c(O[C@@H]3CCN(C)C3)c2)cc1OC
- Growth Rate [1, 5]: -1
- Growth Rate [1, 6]: 0.02
- Growth Rate [1, 10]: 0.61
- Growth Rate [1, 11]: 1
- Growth Rate [1, 12]: 0.77
- Growth Rate [2, 4]: 0.96
- Growth Rate [2, 7]: 0.09
- Growth Rate [2, 9]: 0.38
- Growth Rate [2, 11]: 0.94
- Growth Rate [3, 6]: -0.5
- Growth Rate [3, 7]: -0.63
- Growth Rate [3, 8]: -0.19
- Growth Rate [3, 9]: -0.22
- Growth Rate [3, 10]: -0.12
- Growth Rate [3, 11]: 0.19
- Growth Rate [3, 12]: -0.01
- Growth Rate [3, 13]: 0.1

Compound: Cn1cc(-c2ccc3occ(-c4cccc(-c5ccncc5)c4)c3n2)cn1
- Growth Rate [1, 4]: -0.88
- Growth Rate [1, 6]: -0.02
- Growth Rate [1, 7]: -0.14
- Growth Rate [1, 8]: -0.03
- Growth Rate [1, 9]: -0.05
- Growth Rate [1, 10]: -0.03
- Growth Rate [1, 11]: 0.09
- Growth Rate [1, 12]: -0.02
- Growth Rate [1, 13]: 0.09
- Growth Rate [2, 6]: -0.87
- Growth Rate [2, 7]: -0.61
- Growth Rate [2, 8]: -0.67
- Growth Rate [2, 9]: -0.44
- Growth Rate [2, 10]: -0.56
- Growth Rate [2, 11]: -0.33
- Growth Rate [2, 12]: -0.43
- Growth Rate [2, 13]: -0.32
- Growth Rate [3, 6]: -0.96
- Growth Rate [3, 8]: -0.95
- Growth Rate [3, 9]: -0.62
- Growth Rate [3, 10]: -0.87
- Growth Rate [3, 11]: -0.23
- Growth Rate [3, 12]: -0.84
- Growth Rate [3, 13]: 0.02

Compound: CCNC1(C(N)=O)CCN(c2ncnc3c2nc(-c2ccccc2Cl)n3-c2ccc(Cl)cc2)CC1 [OTENABANT]
- Growth Rate [1, 4]: -0.85
- Growth Rate [1, 7]: 0.79
- Growth Rate [1, 9]: 0.93
- Growth Rate [1, 11]: 0.92
- Growth Rate [1, 13]: 0.93
- Growth Rate [2, 9]: 0.81
- Growth Rate [3, 4]: -0.61
- Growth Rate [3, 5]: 0.22
- Growth Rate [3, 7]: 0.96
- Growth Rate [3, 8]: -0.34
- Growth Rate [3, 9]: 1
- Growth Rate [3, 10]: 0.38
- Growth Rate [3, 12]: -0.07

Compound: O=C1NC(Nc2ccccc2)=N/C1=C\c1ccc2c(c1)OCO2
- Growth Rate [1, 5]: -1
- Growth Rate [1, 6]: -0.77
- Growth Rate [1, 7]: 0.8
- Growth Rate [1, 8]: 0.12
- Growth Rate [1, 9]: 0.66
- Growth Rate [1, 10]: 0.39
- Growth Rate [1, 11]: 0.59
- Growth Rate [1, 12]: 0.59
- Growth Rate [1, 13]: 0.63
- Growth Rate [2, 4]: 0.84
- Growth Rate [2, 5]: 0.94
- Growth Rate [2, 6]: 0.37
- Growth Rate [2, 7]: 0.13
- Growth Rate [2, 8]: 0.75
- Growth Rate [2, 9]: 0.51
- Growth Rate [2, 10]: 0.75
- Growth Rate [2, 11]: 0.58
- Growth Rate [2, 12]: 0.82
- Growth Rate [2, 13]: 0.78
- Growth Rate [3, 5]: 0.56
- Growth Rate [3, 6]: 0.26
- Growth Rate [3, 8]: 0.74

Compound: O=c1ccn([C@@H]2O[C@H](COP(=O)([O-])OP(=O)([O-])OP(=O)([O-])OP(=O)([O-])OC[C@H]3O[C@@H](n4ccc(=O)[nH]c4=O)[C@H](O)[C@@H]3O)[C@@H](O)[C@H]2O)c(=O)[nH]1.[Na+].[Na+].[Na+].[Na+] [DIQUAFOSOL TETRASODIUM]
- Growth Rate [1, 4]: -0.05
- Growth Rate [1, 6]: 0.17
- Growth Rate [1, 8]: 0.47
- Growth Rate [1, 10]: 0.88
- Growth Rate [1, 11]: 0.92
- Growth Rate [1, 12]: 0.93
- Growth Rate [2, 4]: 0.43
- Growth Rate [2, 5]: 0.4
- Growth Rate [2, 6]: 0.69
- Growth Rate [2, 7]: 0.63
- Growth Rate [2, 8]: 0.73
- Growth Rate [2, 10]: 0.72
- Growth Rate [2, 12]: 0.85
- Growth Rate [2, 13]: 0.81
- Growth Rate [3, 4]: 0.39
- Growth Rate [3, 7]: 0.61
- Growth Rate [3, 12]: 0.89

Compound: C[C@H](NC(=O)c1c(C(F)F)nn(C)c1Oc1cccc(C(F)(F)F)c1)c1ccc(C(=O)O)cc1 [PALUPIPRANT]
- Growth Rate [1, 4]: -0.16
- Growth Rate [1, 5]: -1
- Growth Rate [1, 10]: 0.93
- Growth Rate [3, 4]: 0.19
- Growth Rate [3, 5]: 0.08
- Growth Rate [3, 10]: 0.96

Compound: CCCOc1ccc2[nH]cc(C3=CCNCC3)c2n1.Cl
- Growth Rate [1, 6]: 0.81
- Growth Rate [1, 8]: 0.67
- Growth Rate [1, 9]: 0.93
- Growth Rate [1, 10]: 0.82
- Growth Rate [1, 11]: 0.95
- Growth Rate [1, 12]: 0.92
- Growth Rate [1, 13]: 0.93
- Growth Rate [2, 7]: 0.51
- Growth Rate [2, 9]: 0.75
- Growth Rate [2, 11]: 0.95

Compound: CC[C@H](C)[C@@H]1NC(=O)[C@H](Cc2ccc(OC)cc2)NC(=O)CCCSC[C@@H](C(=O)N2CCC[C@H]2C(=O)N[C@@H](CC(C)C)C(=O)NCC(N)=O)NC(=O)[C@H](CC(N)=O)NC(=O)[C@H](CCC(N)=O)NC1=O [CARBETOCIN] (Y(Me)IQNCPLG-NH2; linker N-5 via X1)
- Growth Rate [2, 4]: 0.31
- Growth Rate [2, 5]: -0.11
- Growth Rate [2, 6]: 1
- Growth Rate [2, 8]: 0.63
- Growth Rate [2, 10]: 0.76
- Growth Rate [2, 11]: 1
- Growth Rate [2, 12]: 0.89
- Growth Rate [2, 13]: 0.92
- Growth Rate [3, 4]: 0.35
- Growth Rate [3, 5]: 0.98
- Growth Rate [3, 10]: 0.85
- Growth Rate [3, 12]: 0.54

Compound: CCCn1c(=O)c2[nH]c(-c3ccc(OCC(=O)Nc4ccc(C#N)cc4)cc3)nc2n(CCC)c1=O
- Growth Rate [1, 4]: 0.37
- Growth Rate [1, 5]: -1
- Growth Rate [2, 5]: 0.64
- Growth Rate [2, 6]: 0.24
- Growth Rate [2, 8]: 0.85
- Growth Rate [2, 10]: 0.94

Compound: CN1CCN2c3ccccc3Cc3ccccc3C2C1.Cl (centres undefined) [MIANSERIN HYDROCHLORIDE]
- Growth Rate [1, 5]: -1
- Growth Rate [1, 7]: 0.85
- Growth Rate [1, 9]: 0.97
- Growth Rate [1, 10]: 0.96
- Growth Rate [1, 11]: 0.94
- Growth Rate [1, 13]: 0.97
- Growth Rate [2, 5]: 0.8

Compound: CN1CCN2c3ncccc3Cc3ccccc3C2C1 (centres undefined) [MIRTAZAPINE]
- Growth Rate [1, 5]: -0.76
- Growth Rate [1, 8]: 0.81
- Growth Rate [1, 9]: 0.97
- Growth Rate [1, 11]: 0.79
- Growth Rate [1, 12]: 0.96
- Growth Rate [1, 13]: 0.85
- Growth Rate [2, 7]: 0.53
